Source: publication PMC3462775 (PLoS ONE, 2012)
≈ marks a conversion by molar mass, not a printed value. Bridge positions count the residues as written; N and C are the ends. Square brackets hold non-standard residues; d marks the D form. Peptide text beside a SMILES is read from it. I, II: the chains in the order shown. βAla = NCCC(=O)O

Key:
[1] = system: E. coli ATCC 25922 biofilm; format: cell-based, Escherichia coli; settings: ATCC 25922, 2 h
Procedure: Biofilm formation was performed by adapting the procedure described in [39] using the Calgary Biofilm Device (Innovotech, Innovotech Inc. Edmonton, Canada). Briefly, 96-well plates containing the bacterial inoculum were sealed with lids bearing 96 pegs on which the biofilm could build up. The plates were placed in an orbital incubator at 35°C (for P. aeruginosa and E. coli) or 37°C (for S. aureus) for 20 h under agitation at 125 rpm. Once biofilms formed, the lids were removed from the plates and the pegs were rinsed twice with phosphate buffered saline (PBS) to remove planktonic cells. The peg-lid was then transferred to a 96-well challenge microtiter plate, each well containing 200 µl of a twofold serial dilution of each peptide in LB medium. The challenge plate was incubated at 37°C for 2 hours. Peptide activity on pre-formed biofilm was evaluated by two independent methods: (i) visual observation of bacterial growth and (ii) counting of living bacterial cells after peptide treatment. In the first case, the peg-lid was removed from the challenge plate, rinsed with PBS and used to cover a 96-well recovery microtiter plate, each well containing 200 µl LB medium. […] Colony forming units (CFU) were expressed as percentage with respect to control (peptide-untreated biofilms). […]

S. aureus USA300 = experiment: In vivo anti-MRSA activity, lethal i.p. infection of mice; settings: Balb-c mice (20 g), groups of 5, i.p. LD100 (1×10^6) S. aureus USA 300 in 7% mucin, single i.p. peptide 25 mg/kg 30 min later; for survival: after 7 days
Procedure: The smallest number of bacteria causing 100% lethal infection (LD100) after intra-peritoneal (i.p.) injection was 1×10^6 in the presence of 7% mucin. An LD100 killed mice within 20 hours. Mice were infected with the LD100 of bacteria and treated i.p. with the peptides 30 minutes later.
Figure 4 In vivo antibacterial activity of tetrabranched M33-L and M33-D peptides. Balb-c mice (20 g) were injected i.p. with a lethal amount of S. aureus USA300 cells. Dashed line (Ctr), injection with bacteria and no peptides; dotted line, injection with bacteria and a single injection of M33-L peptide (25 mg/kg) 30 min later; continuous line, injection with bacteria and a single injection of M33-D peptide (25 mg/kg) 30 min later.
Animal procedures were approved by the Ethical Committee of the Azienda Ospedaliera Universitaria Senese on November 18, 2010. Balb-c mice (20 g) were infected i.p. with lethal amounts of bacteria (see results) mixed in 500 µl PBS +7% mucin (mucin from porcine stomach, type II, Sigma-Aldrich). Bacteria were cultured overnight, centrifuged, mixed in sterile PBS, and measured by spectrophotometer. Possible further dilutions in PBS were sometimes necessary to obtain the right amount of bacteria. Groups consisted of 5 animals. Moribund animals were killed humanely to avoid unnecessary distress. Surviving mice were monitored for 7 days. Thirty minutes after bacterial administration, peptides were inoculated i.p. with 0.5 ml PBS solution containing the indicated amount of peptide (see Results). Control animals received only PBS. P values were calculated using GraphPad Prism software.

Enterobacteriaceae = experiment: MIC comparison M33-D vs M33-L, Enterobacteriaceae; format: cell-based
Procedure: MICs were determined using a standard microdilution assay as recommended by the Clinical and Laboratory Standards Institute. Assays were performed in triplicate using cation-supplemented Mueller-Hinton (MH) broth (Becton Dickinson, Franklin Lakes, NJ, USA) and a bacterial inoculum of 5x10^4 CFU/well, in a final volume of 100 µl. The tested concentrations ranged from 0.1 µM to 24 µM for both peptides. Results were recorded after 18–20 h of incubation at 37°C.

CC[C@@H](C)[C@@H](NC(=O)[C@@H](CCCCN)NC(=O)[C@H](N)CCCCN)C(=O)N[C@H](CCCNC(=N)N)C(=O)N[C@@H](C(=O)N[C@H](CCCNC(=N)N)C(=O)N[C@H](CC(C)C)C(=O)N[C@H](CO)C(=O)N[C@H](C)C(=O)NCCCC[C@H](NC(=O)[C@@H](C)NC(=O)[C@@H](CO)NC(=O)[C@@H](CC(C)C)NC(=O)[C@@H](CCCNC(=N)N)NC(=O)[C@H](NC(=O)[C@@H](CCCNC(=N)N)NC(=O)[C@H](NC(=O)[C@@H](CCCCN)NC(=O)[C@H](N)CCCCN)[C@H](C)CC)C(C)C)C(=O)NCCCC[C@H](NC(=O)[C@H](CCCCNC(=O)[C@@H](C)NC(=O)[C@@H](CO)NC(=O)[C@@H](CC(C)C)NC(=O)[C@@H](CCCNC(=N)N)NC(=O)[C@H](NC(=O)[C@@H](CCCNC(=N)N)NC(=O)[C@H](NC(=O)[C@@H](CCCCN)NC(=O)[C@H](N)CCCCN)[C@H](C)CC)C(C)C)NC(=O)[C@@H](C)NC(=O)[C@@H](CO)NC(=O)[C@@H](CC(C)C)NC(=O)[C@@H](CCCNC(=N)N)NC(=O)[C@H](NC(=O)[C@@H](CCCNC(=N)N)NC(=O)[C@H](NC(=O)[C@@H](CCCCN)NC(=O)[C@H](N)CCCCN)[C@H](C)CC)C(C)C)C(=O)NCCC(=O)O)C(C)C [M33-D] (I: H-[dK][dK][dI][dR][dV][dR][dL][dS][dA]KK[βAla]-OH / II: H-[dK][dK][dI][dR][dV][dR][dL][dS][dA]K / III: H-[dK][dK][dI][dR][dV][dR][dL][dS][dA] / IV: H-[dK][dK][dI][dR][dV][dR][dL][dS][dA]; amide I:10-IV:C, I:11-II:C, II:10-III:C; N-terminus assumed)
Minimum bactericidal concentration on biofilm (MBCb) [1]: 6 µM (≈ 28.1 µg/mL)
survival (S. aureus USA300): 100%
fold lower activity (MIC) than M33-L (Enterobacteriaceae): 2–4 fold

CC[C@H](C)[C@H](NC(=O)[C@H](CCCCN)NC(=O)[C@@H](N)CCCCN)C(=O)N[C@@H](CCCNC(=N)N)C(=O)N[C@H](C(=O)N[C@@H](CCCNC(=N)N)C(=O)N[C@@H](CC(C)C)C(=O)N[C@@H](CO)C(=O)N[C@@H](C)C(=O)NCCCC[C@H](NC(=O)[C@H](C)NC(=O)[C@H](CO)NC(=O)[C@H](CC(C)C)NC(=O)[C@H](CCCNC(=N)N)NC(=O)[C@@H](NC(=O)[C@H](CCCNC(=N)N)NC(=O)[C@@H](NC(=O)[C@H](CCCCN)NC(=O)[C@@H](N)CCCCN)[C@@H](C)CC)C(C)C)C(=O)NCCCC[C@H](NC(=O)[C@H](CCCCNC(=O)[C@H](C)NC(=O)[C@H](CO)NC(=O)[C@H](CC(C)C)NC(=O)[C@H](CCCNC(=N)N)NC(=O)[C@@H](NC(=O)[C@H](CCCNC(=N)N)NC(=O)[C@@H](NC(=O)[C@H](CCCCN)NC(=O)[C@@H](N)CCCCN)[C@@H](C)CC)C(C)C)NC(=O)[C@H](C)NC(=O)[C@H](CO)NC(=O)[C@H](CC(C)C)NC(=O)[C@H](CCCNC(=N)N)NC(=O)[C@@H](NC(=O)[C@H](CCCNC(=N)N)NC(=O)[C@@H](NC(=O)[C@H](CCCCN)NC(=O)[C@@H](N)CCCCN)[C@@H](C)CC)C(C)C)C(=O)NCCC(=O)O)C(C)C [M33-L] (I: H-KKIRVRLSAKK[βAla]-OH / II: H-KKIRVRLSAK / III: H-KKIRVRLSA / IV: H-KKIRVRLSA; amide I:10-IV:C, I:11-II:C, II:10-III:C; N-terminus assumed)
Minimum bactericidal concentration on biofilm (MBCb) [1]: 6 µM (≈ 28.1 µg/mL)
mortality (in words) (S. aureus USA300): mortality overlapping that of controls
survival (S. aureus USA300): 0%
